Experimental data from publication PMC12454493, “Insight on novel sulfamoylphenyl pyrazole derivatives as anticancer carbonic anhydrase inhibitors” (Molecular Diversity, 2024).

How the values were obtained:
[1] = tested on: K-562; experiment: NCI-60 one-dose SRB screen (Leukemia); type: cell-based; details: Homo sapiens, K562, single dose 10 µM, 48 h, read-out: Growth inhibition percent (GI %)
Description: (§1) The National Cancer Institute (NCI) Developmental Therapeutic Program (www.dtp.nci.nih.gov) selected the 20 novel synthesized compounds 4a-e, 5a-e, 6a-c, 9a-e, 10 and 11 to test for their anticancer activity at a single dose of 10 µM using SRB assay. […] Supplementary Data S3; Table S1 presents the detailed screening results of the most promising compounds. The preliminary screening’s detailed results for the remaining compounds are elucidated in the (Supplementary Data S3; Table S2).
(§2) The guidelines of the Drug Evaluation Branch’s protocol at the NCI in Bethesda served as the basis for the in vitro anticancer screening assays. at one dose 10 µM against a panel of 60 cancer cell lines. The human tumor cell lines used belonged to nine panels: leukemia, melanoma, lung, colon, CNS, ovarian, renal, prostate and breast cancers using the sulforhodamine B (SRB) assay in a 48 h drug exposure protocol.

[2] = tested on: RPMI-8226; experiment: NCI-60 one-dose SRB screen (Leukemia); type: cell-based; details: Homo sapiens, single dose 10 µM, 48 h, read-out: Growth inhibition percent (GI %)
Description: as §1, §2

[3] = tested on: CCRF-CEM; experiment: NCI-60 one-dose SRB screen (Leukemia); type: cell-based; details: Homo sapiens, single dose 10 µM, 48 h, read-out: Growth inhibition percent (GI %)
Description: as §1, §2

[4] = tested on: MOLT-4; experiment: NCI-60 one-dose SRB screen (Leukemia); type: cell-based; details: Homo sapiens, single dose 10 µM, 48 h, read-out: Growth inhibition percent (GI %)
Description: as §1, §2

[5] = tested on: HL-60(TB); experiment: NCI-60 one-dose SRB screen (Leukemia); type: cell-based; details: Homo sapiens, single dose 10 µM, 48 h, read-out: Growth inhibition percent (GI %)
Description: as §1, §2

[6] = tested on: SR; experiment: NCI-60 one-dose SRB screen (Leukemia); type: cell-based; details: Homo sapiens, single dose 10 µM, 48 h, read-out: Growth inhibition percent (GI %)
Description: as §1, §2

[7] = tested on: SK-MEL-2; experiment: NCI-60 one-dose SRB screen (Melanoma); type: cell-based; details: Homo sapiens, single dose 10 µM, 48 h, read-out: Growth inhibition percent (GI %)
Description: as §1, §2

[8] = tested on: M14; experiment: NCI-60 one-dose SRB screen (Melanoma); type: cell-based; details: Homo sapiens, single dose 10 µM, 48 h, read-out: Growth inhibition percent (GI %)
Description: as §1, §2

[9] = tested on: UACC-257; experiment: NCI-60 one-dose SRB screen (Melanoma); type: cell-based; details: Homo sapiens, single dose 10 µM, 48 h, read-out: Growth inhibition percent (GI %)
Description: as §1, §2

[10] = tested on: UACC-62; experiment: NCI-60 one-dose SRB screen (Melanoma); type: cell-based; details: Homo sapiens, single dose 10 µM, 48 h, read-out: Growth inhibition percent (GI %)
Description: as §1, §2

[11] = tested on: SK-MEL-28; experiment: NCI-60 one-dose SRB screen (Melanoma); type: cell-based; details: Homo sapiens, single dose 10 µM, 48 h, read-out: Growth inhibition percent (GI %)
Description: as §1, §2

[12] = tested on: MALME-3M; experiment: NCI-60 one-dose SRB screen (Melanoma); type: cell-based; details: Homo sapiens, single dose 10 µM, 48 h, read-out: Growth inhibition percent (GI %)
Description: as §1, §2

[13] = tested on: MDA-MB-435; experiment: NCI-60 one-dose SRB screen (Melanoma); type: cell-based; details: Homo sapiens, single dose 10 µM, 48 h, read-out: Growth inhibition percent (GI %)
Description: as §1, §2

[14] = tested on: SK-MEL-5; experiment: NCI-60 one-dose SRB screen (Melanoma); type: cell-based; details: Homo sapiens, single dose 10 µM, 48 h, read-out: Growth inhibition percent (GI %)
Description: as §1, §2

[15] = tested on: LOX IMVI; experiment: NCI-60 one-dose SRB screen (Melanoma); type: cell-based; details: Homo sapiens, single dose 10 µM, 48 h, read-out: Growth inhibition percent (GI %)
Description: as §1, §2

[16] = target: hCA XII (Homo sapiens, UniProt O43570); experiment: CA inhibitory activity, spectrophotometric p-NPA assay; type: biochemical; details: p-NPA substrate, pH 7.5, 25 °C, triplicate; read-out: IC50 (µM) ± SD hCA XII
Sequence of hCA XII (O43570 25-354): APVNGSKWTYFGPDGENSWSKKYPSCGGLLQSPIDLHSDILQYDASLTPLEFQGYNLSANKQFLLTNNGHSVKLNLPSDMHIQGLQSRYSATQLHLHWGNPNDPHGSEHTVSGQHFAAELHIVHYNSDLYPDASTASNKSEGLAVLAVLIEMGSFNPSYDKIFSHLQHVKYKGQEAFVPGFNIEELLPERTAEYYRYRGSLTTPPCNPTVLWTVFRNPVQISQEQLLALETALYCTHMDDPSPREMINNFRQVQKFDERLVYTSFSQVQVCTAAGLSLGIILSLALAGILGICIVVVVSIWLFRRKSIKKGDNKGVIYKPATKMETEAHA

[17] = tested on: HT29; experiment: NCI-60 one-dose SRB screen (Colon Cancer); type: cell-based; details: Homo sapiens, HT-29, single dose 10 µM, 48 h, read-out: Growth inhibition percent (GI %)
Description: as §1, §2

[18] = tested on: KM12; experiment: NCI-60 one-dose SRB screen (Colon Cancer); type: cell-based; details: Homo sapiens, single dose 10 µM, 48 h, read-out: Growth inhibition percent (GI %)
Description: as §1, §2

[19] = tested on: HCC-2998; experiment: NCI-60 one-dose SRB screen (Colon Cancer); type: cell-based; details: Homo sapiens, single dose 10 µM, 48 h, read-out: Growth inhibition percent (GI %)
Description: as §1, §2

[20] = tested on: SW-620; experiment: NCI-60 one-dose SRB screen (Colon Cancer); type: cell-based; details: Homo sapiens, single dose 10 µM, 48 h, read-out: Growth inhibition percent (GI %)
Description: as §1, §2

[21] = tested on: COLO 205; experiment: NCI-60 one-dose SRB screen (Colon Cancer); type: cell-based; details: Homo sapiens, single dose 10 µM, 48 h, read-out: Growth inhibition percent (GI %)
Description: as §1, §2

[22] = tested on: HCT-116; experiment: NCI-60 one-dose SRB screen (Colon Cancer); type: cell-based; details: Homo sapiens, single dose 10 µM, 48 h, read-out: Growth inhibition percent (GI %)
Description: as §1, §2

[23] = tested on: HCT-15; experiment: NCI-60 one-dose SRB screen (Colon Cancer); type: cell-based; details: Homo sapiens, single dose 10 µM, 48 h, read-out: Growth inhibition percent (GI %)
Description: as §1, §2

[24] = tested on: DU-145; experiment: NCI-60 one-dose SRB screen (Prostate Cancer); type: cell-based; details: Homo sapiens, single dose 10 µM, 48 h, read-out: Growth inhibition percent (GI %)
Description: as §1, §2

[25] = tested on: PC-3; experiment: NCI-60 one-dose SRB screen (Prostate Cancer); type: cell-based; details: Homo sapiens, single dose 10 µM, 48 h, read-out: Growth inhibition percent (GI %)
Description: as §1, §2

[26] = tested on: NCI-H226; experiment: NCI-60 one-dose SRB screen (Non-Small Cell Lung Cancer); type: cell-based; details: Homo sapiens, single dose 10 µM, 48 h, read-out: Growth inhibition percent (GI %)
Description: as §1, §2

[27] = tested on: A549/ATCC; experiment: as above; type: cell-based; details: Homo sapiens, single dose 10 µM, 48 h, read-out: Growth inhibition percent (GI %)
Description: as §1, §2

[28] = tested on: NCI-H460; experiment: as above; type: cell-based; details: Homo sapiens, single dose 10 µM, 48 h, read-out: Growth inhibition percent (GI %)
Description: as §1, §2

[29] = tested on: EKVX; experiment: as above; type: cell-based; details: Homo sapiens, single dose 10 µM, 48 h, read-out: Growth inhibition percent (GI %)
Description: as §1, §2

[30] = tested on: NCI-H23; experiment: as above; type: cell-based; details: Homo sapiens, single dose 10 µM, 48 h, read-out: Growth inhibition percent (GI %)
Description: as §1, §2

In the case of Cc1ccc(-c2nn(-c3ccc(S(N)(=O)=O)cc3)cc2C(=O)OCC(=O)Nc2ccc(S(N)(=O)=O)cc2)cc1 [Compound 4b, 2-Oxo-2-[(4-sulfamoylphenyl)amino] ethyl 1-(4-sulfamoylphenyl)-3-(p-tolyl)-1H-pyrazole-4-carboxylate], the inhibition at 10 µM [1] is reported as 7.16%, the inhibition at 10 µM [2] is reported as < 5% and the inhibition at 10 µM [3] is reported as < 5%. The inhibition at 10 µM [4] was < 5%, the inhibition at 10 µM [5] was 5.09% and the inhibition at 10 µM [6] was 30.2%. The inhibition at 10 µM [7] was 8.94%, the inhibition at 10 µM [8] was < 5% and the inhibition at 10 µM [9] was 5.42%. The inhibition at 10 µM [10] was < 5%, the inhibition at 10 µM [11] was < 5% and the inhibition at 10 µM [12] was < 5%. For the same compound, the inhibition at 10 µM [13] was < 5%, the inhibition at 10 µM [14] was < 5% and the inhibition at 10 µM [15] was < 5%. The IC50 [16] was 0.17 ± 0.006 µM, the inhibition at 10 µM [17] was 11.6% and the inhibition at 10 µM [18] was < 5%. For the same compound, the inhibition at 10 µM [19] was < 5%, the inhibition at 10 µM [20] was < 5% and the inhibition at 10 µM [21] was < 5%. The inhibition at 10 µM [22] was < 5%, the inhibition at 10 µM [23] was < 5% and the inhibition at 10 µM [24] was < 5%. For the same compound, the inhibition at 10 µM [25] was < 5%, the inhibition at 10 µM [26] was < 5% and the inhibition at 10 µM [27] was 7.63%. The inhibition at 10 µM [28] was < 5%, the inhibition at 10 µM [29] was < 5% and the inhibition at 10 µM [30] was < 5%.
